This note sets out measurements from ChEMBL document CHEMBL1149337, “Design and synthesis of potent and selective 1,3,4-trisubstituted-2-oxopiperazine based melanocortin-4 receptor agonists” (Bioorg Med Chem Lett, 2006).

pEC50, pKi: −log10 of the molar value.

For assay [1], the target named is T1, Melanocyte-stimulating hormone receptor (Homo sapiens, UniProt Q01726). Briefly: Binding affinity to human MC1R.
For assay [2], the target named is T1, Melanocyte-stimulating hormone receptor. Briefly: Agonist activity at human MC1R. In kind it is functional.
The target of assay [3] is T2, Melanocortin receptor 3 (Homo sapiens, UniProt P41968). Put plainly: Binding affinity to human MC3R.
T2 sequence (P41968 whole entry): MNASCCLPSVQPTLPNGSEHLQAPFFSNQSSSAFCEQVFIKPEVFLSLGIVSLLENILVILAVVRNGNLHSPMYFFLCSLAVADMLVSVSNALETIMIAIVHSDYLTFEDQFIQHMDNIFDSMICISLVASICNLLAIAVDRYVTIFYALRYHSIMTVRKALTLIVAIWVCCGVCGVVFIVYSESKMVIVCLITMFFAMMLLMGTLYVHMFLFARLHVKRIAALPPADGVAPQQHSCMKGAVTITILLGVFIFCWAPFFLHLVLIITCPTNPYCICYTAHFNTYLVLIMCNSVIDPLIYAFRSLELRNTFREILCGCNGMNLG
The target in assay [4] is T2, Melanocortin receptor 3. Briefly: Agonist activity at human MC3R. The class given is functional.
Assay [5] concerns the target T3, Melanocortin receptor 4 (Homo sapiens, UniProt P32245). Briefly: Binding affinity to human MC4R.
Assay [6] deals with T3, Melanocortin receptor 4. Put plainly: Agonist activity at human MC4R. In kind it is functional.
Assay [7] deals with Melanocortin receptor (M1 and M4) (Homo sapiens) (UniProt P32245+Q01726). Briefly: Selectivity for human MC4R over MC1R. In kind it is protein assay.
In assay [8] the target is Melanocortin receptor (M3 and M4) (Homo sapiens) (UniProt P32245+P41968). Briefly: Selectivity for human MC4R over MC3R. The class given is protein assay.

T3 sequence (P32245 whole entry): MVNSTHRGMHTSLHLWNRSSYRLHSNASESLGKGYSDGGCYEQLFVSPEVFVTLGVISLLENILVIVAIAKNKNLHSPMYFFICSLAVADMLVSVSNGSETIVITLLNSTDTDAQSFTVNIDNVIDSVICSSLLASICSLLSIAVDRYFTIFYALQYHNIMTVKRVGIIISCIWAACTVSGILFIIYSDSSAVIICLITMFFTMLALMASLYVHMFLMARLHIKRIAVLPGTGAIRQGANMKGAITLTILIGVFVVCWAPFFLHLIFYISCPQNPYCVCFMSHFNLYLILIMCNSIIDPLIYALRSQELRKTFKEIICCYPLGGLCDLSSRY
T1 sequence (Q01726 whole entry): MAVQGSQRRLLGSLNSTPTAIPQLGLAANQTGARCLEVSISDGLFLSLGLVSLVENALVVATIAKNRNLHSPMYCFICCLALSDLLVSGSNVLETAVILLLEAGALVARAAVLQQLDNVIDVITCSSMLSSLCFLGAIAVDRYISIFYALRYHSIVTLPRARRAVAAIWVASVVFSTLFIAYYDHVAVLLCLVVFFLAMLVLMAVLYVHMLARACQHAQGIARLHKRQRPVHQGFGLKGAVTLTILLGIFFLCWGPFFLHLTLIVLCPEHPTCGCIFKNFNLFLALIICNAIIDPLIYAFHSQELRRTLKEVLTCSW

What is called pKi is the Ki on a negative log10 scale, so that one unit is a factor of ten. A lower pKi goes with a high Ki. Usually pEC50 stands for −log10 of the EC50, conventionally taken in molar units. Low readings indicate a high EC50, high ones a low EC50. As to `CNC(=O)[C@H](Cc1ccc2ccccc2c1)N1CCN(C(=O)[C@@H](Cc2ccc(F)cc2)NC(=O)[C@H](CCC(N)=O)NC(C)=O)[C@@H](CCCN=C(N)N)C1=O`, the pKi in assay [1] was 8.70; in assay [3], 8.48; in assay [5] it was 8.96. The pEC50 in assay [2] is 9.43; in assay [4], 9.30; in assay [6], 9.47.

Consider `CNC(=O)[C@H](Cc1ccc2ccccc2c1)N1CCN(C(=O)[C@@H](Cc2ccc(F)cc2)NC(C)=O)[C@@H](CCCN=C(N)N)C1=O`, for which the pKi in assay [1] was 7.74; in assay [3] it was 8.15; in assay [5], 8.89. Also, the pEC50 in assay [2] was 8.64; in assay [4] it was 8.00; in assay [6], 9.30.

With `CNC(=O)[C@H](Cc1ccc2ccccc2c1)N1CCN(C(=O)CCc2ccc(F)cc2)[C@@H](CCCN=C(N)N)C1=O`, the pKi in assay [1] was 6.02; in assay [3], 6.69; in assay [5], 8.28. In addition, the pEC50 is 5.86 in assay [2], 6.85 in assay [4] and 8.05 in assay [6].

Regarding `CNC(=O)[C@H](Cc1ccc2ccccc2c1)N1CCN(C(=O)[C@H](N)Cc2ccccc2)[C@@H](CCCN=C(N)N)C1=O`, the pKi was 6.18 in assay [1], 6.62 in assay [3] and 8.24 in assay [5]. The negative-log EC50 (pEC50) in assay [2] is 6.28; in assay [4], 7.39; in assay [6], 8.77. Further, the Selectivity ratio in assay [7] amounted to 116; in assay [8] it was 42.

Consider `CNC(=O)[C@H](Cc1ccc2ccccc2c1)N1CCN(C(=O)[C@H](N)Cc2ccc(F)cc2)[C@@H](CCCN=C(N)N)C1=O`, for which the pKi in assay [1] is 6.44; in assay [3] it was 7.12; in assay [5] it was 8.15. Besides, the pEC50 in assay [2] was 6.50; in assay [4] it was 7.43; in assay [6], 8.80.

As to `CNC(=O)[C@H](Cc1ccc2ccccc2c1)N1CCN(C(=O)[C@@H](Cc2ccc(F)cc2)NC(=O)C2Cc3ccccc3CN2)[C@@H](CCCN=C(N)N)C1=O` (stereo partly specified), the pKi in assay [1] is 6.50; in assay [3], 6.45; in assay [5], 8.22. Moreover, the values for the pEC50 in assay [2], in assay [4] and in assay [6] were 6.98, 6.79 and 8.80, respectively.

Take `CNC(=O)[C@H](Cc1ccc2ccccc2c1)N1CCN(C(=O)[C@@H](Cc2ccccc2)NC(=O)[C@H](Cc2c[nH]cn2)NC(C)=O)[C@@H](CCCN=C(N)N)C1=O`: the negative-log Ki (pKi) in assay [1] was 9.40; in assay [3], 9.00; in assay [5] it was 9.10. Further, the negative logarithm of the EC50 (pEC50) is 10.15 in assay [2], 9.40 in assay [4] and 9.52 in assay [6].

For `CNC(=O)[C@H](Cc1ccc2ccccc2c1)N1CCN(C(=O)[C@H](N)Cc2ccc(F)cc2)[C@@H](CCCNC(N)=O)C1=O`, the results for the pKi in assay [1], in assay [3] and in assay [5] were 5.67, 6.34 and 6.58, respectively. The same molecule gave a pEC50 in assay [6] of 7.92.

Consider `CNC(=O)[C@H](Cc1ccc2ccccc2c1)N1CCN(C(=O)[C@@H](Cc2ccc(F)cc2)NC(=O)[C@H](Cc2cnc[nH]2)NC(C)=O)[C@@H](CCCN=C(N)N)C1=O`, for which the pKi in assay [1] is 8.70; in assay [3], 7.46; in assay [5] it was 8.30. In addition, the results for the pEC50 in assay [2], in assay [4] and in assay [6] were 8.77, 8.22 and 8.70, respectively.

On to `CNC(=O)[C@H](Cc1ccc2ccccc2c1)N1CCN(C(=O)[C@@H](Cc2ccc(F)cc2)NC(=O)[C@H](Cc2ccc(O)cc2)NC(C)=O)[C@@H](CCCN=C(N)N)C1=O`, for which the results for the pKi in assay [1], in assay [3] and in assay [5] were 7.85, 8.96 and 9.40, respectively. Moreover, the figures for the pEC50 in assay [2], in assay [4] and in assay [6] were 7.52, 8.70 and 8.06, respectively.

Consider `CNC(=O)[C@H](Cc1ccc2ccccc2c1)NC(=O)[C@H](CCCN=C(N)N)NC(=O)[C@H](N)Cc1ccc(F)cc1`, for which the values for the pKi in assay [1], in assay [3] and in assay [5] were 5.39, 5.94 and 6.65, respectively. The pEC50 in assay [2] was 4.66; in assay [4] it was 4.70; in assay [6], 6.85.

With `CNC(=O)[C@H](Cc1ccc2ccccc2c1)N1CCN(C(=O)[C@H](N)Cc2ccc(F)cc2)[C@@H](CCNC(N)=O)C1=O`, the figures for the pKi in assay [1], in assay [3] and in assay [5] were 4.66, 5.21 and 6.44, respectively. In addition, the pEC50 in assay [6] was 7.74.

`CNC(=O)[C@H](Cc1ccc2ccccc2c1)N1CCN(C(=O)[C@@H](Cc2ccccc2)NC(=O)[C@H](Cc2ccc(O)cc2)NC(C)=O)[C@@H](CCCN=C(N)N)C1=O`: the pKi in assay [1] is 9.00; in assay [3], 9.00; in assay [5], 9.22. Moreover, the pEC50 in assay [2] is 8.77; in assay [4], 9.00; in assay [6], 9.70.
